According to patent publication US20130280764A1, “METHOD OF IMPROVING THE ACTIVITY OF CELLULASE ENZYME MIXTURES IN THE SACCHARIFICATION (LIGNO)CELLULOSIC MATERIAL” (DYADIC INTERNATIONAL (USA) LTD., priority 2012, published 2013):

Assays:
Assay type in all cases: biochemical, Myceliophthora thermophila C1
CBH2 = assay: Saccharification of microcrystalline cellulose by purified cellulase with gluconolactone; conditions: 10 g/L gluconolactone; MCC, 50° C., 72 hrs
Method: (§1) Purified Bgl1, Eg5, Eg6, CBH1, CBH2, and CBH4 from M. thermophila C1 were used to determine the level of inhibition by gluconolactone. For Bgl1, cellobiase activity was assayed by the following procedure: 0.4 ml of 2.5 mM cellobiose solution (in 0.1 M Na-acetate with pH 4.5, 5.0 or 6.0) was incubated during 5 min at 50° C. (with or without gluconolactone), then 0.1 ml of the enzyme (bgl1 from C1) solution was added (the dilution of the enzyme chosen at such a concentration in order to achieve 10% of cellobiose hydrolysis in 15 min, which is 0.072 g/L of glucose released). After 5, 10 and 15 min of incubation at […], 0.1 ml of the reaction mixture was sampled and glucose concentration was determined immediately by the glucose oxidase-peroxidase assay (Megazymes). Gluconolactone (Sigma-Aldrich) was added in the reaction mixture at concentrations between 0-10 g/L (0, 0.04, 0.08, 0.1, 0.2, 0.3, 0.6, 0.8, 1, 2, 4, 5, 8 and 10 g/L).
(§2) For C1 cellulases Eg2, Eg5, Eg6, CBH1, CBH2, CBH4, the effect of 10 g/L gluconolactone on the saccharification of microcrystalline cellulose (“MCC”) at 50° C. was determined after 72 hrs.

EG2 = assay: as above; conditions: 10 g/L gluconolactone; MCC, 50° C., 72 hrs
Method: as §1, §2

CBH4 = assay: as above; conditions: 10 g/L gluconolactone; MCC, 50° C., 72 hrs
Method: as §1, §2

CBH1 = assay: as above; conditions: 10 g/L gluconolactone; MCC, 50° C., 72 hrs
Method: as §1, §2

EG5 = assay: as above; conditions: 10 g/L gluconolactone; MCC, 50° C., 72 hrs
Method: as §1, §2

M. thermophila C1 BGl1 = assay: Cellobiase activity of Bgl1 with or without gluconolactone; conditions: gluconolactone above 0.1 g/L; pH 4.5, 5.0 and 6.0
Method: as §1, §2

Remaining activity (CBH2): 13%
Remaining activity (EG2): 28%
Remaining activity (CBH4): 33%
Remaining activity (CBH1): 14%
Remaining activity (EG5): 65%
inhibition of cellobiase activity (M. thermophila C1 BGl1): completely inhibited
SMILES: O=C1O[C@H](CO)[C@@H](O)[C@H](O)[C@H]1O [gluconolactone]
